Measured values from PMC12040169 (PLOS Biology, 2025).

Assay: in vitro
Conditions: human, hela cells, % viability

Row | SMILES | viability at 28.5 h, 10 µM [%]
1 | COC(=O)c1sccc1Oc1ccc([N+](=O)[O-])cn1 [CBK066826] | 115
2 | N#Cc1cc(F)cc(F)c1NC(=O)c1cccs1 [CBK066832] | 90.2
3 | O=C(Nc1ccc(Br)cc1C(=O)c1ccccc1)c1ccc([N+](=O)[O-])s1 [CBK066838] | 111
4 | N#Cc1sc(-c2ccc(F)cc2)cc1NC(=O)c1cccc([N+](=O)[O-])c1 [CBK066845] | 93.3
5 | N#Cc1ccc(-c2cccs2)nc1SCC(=O)Nc1ccc([N+](=O)[O-])cc1 [CBK066850] | 87.5
6 | COC(=O)c1sccc1NC(=O)c1ccccc1Cl [CBK066860] | 65.5
7 | Cc1sc(C(N)=O)cc1[N+](=O)[O-] [CBK066863] | 106
8 | CN1CCN(c2ccnc3cc(Cl)ccc23)CC1 [CBK066867C] | 86
9 | Cc1cc(N2CCN(CC(=O)c3ccc(Cl)cc3)CC2)c2ccccc2n1 [CBK066868] | 106
10 | COc1ccccc1N1CCN(CC2CN(c3ccccc3)c3ccccc3O2)CC1 (centres unmarked) [CBK066872C] | 84.7
11 | c1ccc(N2CCN(CC3CN(c4ccccc4)c4ccccc4O3)CC2)cc1 (centres unmarked) [CBK066876] | 86
12 | CN1CCN(C2c3ccccc3Oc3ccccc32)CC1 [CBK066891] | 93
13 | c1ccc(-c2nnc3ccccc3c2NCCCN2CCOCC2)cc1 [CBK066892] | 93.9
14 | c1ccc(N2CCN(C3c4ccccc4Sc4ccccc43)CC2)cc1 [CBK066894] | 92.1
15 | COc1ccc2nc(C)cc(N3CCOCC3)c2c1 [CBK066896] | 91.2
16 | CCOc1ccc(-c2cc(C(=O)N3CCN(C)CC3)c3ccccc3n2)cc1 [CBK066900] | 99
17 | Clc1ccc(N2CCN(c3cnc4ccccc4n3)CC2)cc1Cl [CBK066903] | 97.8
18 | CN1CCN(c2cc3ncccc3cc2F)CC1 [CBK066904] | 105
19 | COc1ccc2[nH]cc(CCNC(=O)[C@@H]3Cc4c([nH]c5ccccc45)C4(CCN(Cc5ccc(F)cc5)C4)N3)c2c1 (some centres unmarked) [CBK066937] | 98
20 | CC(=O)N1CCc2c([nH]c3ccccc23)C1CCN(C)Cc1ccc(F)cc1 (centres unmarked) [CBK066969] | 93.9
21 | Fc1ccc(OCCNCC2NCCc3c2[nH]c2ccccc32)cc1 (centres unmarked) [CBK066972] | 92.8
22 | O=C1N=C(NCC2CCCCC2)SC1CC(=O)N1Cc2ccccc2C1 (centres unmarked) [CBK067016] | 85.1
23 | Cc1c(Cl)cccc1CNC(=O)CC1SC(NCC2CCCCC2)=NC1=O (centres unmarked) [CBK067017] | 91.7

Row | SMILES | viability at 28.5 h, 10 µM [%]
24 | O=c1nc(NC2CCCCC2)sc2ncccc12 [CBK067024T] | 92.6
25 | COc1ccc(C(=O)NCC2(c3ccc(OC)c(OC)c3)CCCCC2)c(OC)c1 [CBK067049] | 82.8
26 | COc1ccc(C2(CNC(=O)c3ccc(C)cc3)CCOCC2)cc1 [CBK067060] | 108
27 | CN(c1ccc(C(O)(C(F)(F)F)C(F)(F)F)cc1)S(=O)(=O)c1cccs1 [CBK067061] | 107
28 | COc1ccc(C2N3CCCN2CC3)cc1 (centres unmarked) [CBK067068] | 92.3
29 | Cc1nn(C)c(Cl)c1S(=O)(=O)Nc1cccc(-c2cnco2)c1 [CBK067107] | 78.8
30 | Cc1noc(C)c1S(=O)(=O)Nc1cccc(-c2cnco2)c1 [CBK067108] | 97.1
31 | O=S(=O)(Nc1cccc(-c2cnco2)c1)c1ccc(Br)cc1C(F)(F)F [CBK067118] | 93.4
32 | O=S(=O)(Nc1cccc(-c2cnco2)c1)c1ccc(-c2cc(C(F)(F)F)on2)s1 [CBK067124] | 100
33 | O=[N+]([O-])c1cc(S(=O)(=O)Nc2cccc(-c3cnco3)c2)ccc1Cl [CBK067125] | 95.7
34 | O=S(=O)(Nc1cccc(-c2cnco2)c1)c1cc(C(F)(F)F)cc(C(F)(F)F)c1 [CBK067127] | 109
35 | Cc1nn(C)c(Cl)c1S(=O)(=O)Nc1ccc2cn[nH]c2c1 [CBK067141] | 90.2
36 | Cn1nc(-c2ccc(S(=O)(=O)Nc3ccc4cn[nH]c4c3)s2)cc1C(F)(F)F [CBK067156] | 92.8
37 | N#Cc1cn(S(=O)(=O)c2cccc(C(F)(F)F)c2)nc1N [CBK067225] | 92.6
38 | Cc1cc(NS(=O)(=O)c2cccc3cccnc23)n(C)n1 [CBK067242] | 89.1
39 | Cc1cc(NS(=O)(=O)c2cccc([N+](=O)[O-])c2)n(C)n1 [CBK067243] | 99.2
40 | Cc1cc(NS(=O)(=O)c2cccc3nsnc23)n(C)n1 [CBK067246] | 95.4
41 | Cc1cc(NS(=O)(=O)c2cccc3nonc23)n(C)n1 [CBK067247] | 93.7
42 | Cc1cc(NS(=O)(=O)c2ccc(Oc3ccccc3)cc2)n(C)n1 [CBK067249] | 96.2
43 | Cc1cc(NS(=O)(=O)c2ccc3oc(=O)ccc3c2)n(C)n1 [CBK067250] | 99.6
44 | Cc1cc(NS(=O)(=O)c2csc3ccccc23)n(C)n1 [CBK067251] | 89.5
45 | Cc1cc(NS(=O)(=O)c2ccc(N3CCOCC3)nc2)n(C)n1 [CBK067253] | 117
46 | Cc1cc(NS(=O)(=O)c2ccc(Cl)c(Cl)c2)n(C)n1 [CBK067254] | 109

Row | SMILES | viability at 28.5 h, 10 µM [%]
47 | Cc1cc(NS(=O)(=O)c2ccc(Br)cc2C(F)(F)F)n(C)n1 [CBK067255] | 107
48 | Cc1cc(NS(=O)(=O)c2ccc(-c3ccon3)s2)n(C)n1 [CBK067257] | 85.4
49 | Cc1cc(NS(=O)(=O)c2ccc(Cl)c([N+](=O)[O-])c2)n(C)n1 [CBK067259] | 96.8
50 | Cc1cc(NS(=O)(=O)c2cc(C(=O)O)c(Cl)cc2F)n(C)n1 [CBK067260] | 102
51 | Cc1cc(NS(=O)(=O)c2cc(C(F)(F)F)cc(C(F)(F)F)c2)n(C)n1 [CBK067261] | 105
52 | Cc1noc(C)c1S(=O)(=O)Nc1nc(-c2cccnc2)cs1 [CBK067266] | 91.5
53 | Cn1nc(-c2ccc(S(=O)(=O)Nc3nc(-c4cccnc4)cs3)s2)cc1C(F)(F)F [CBK067270] | 88.4
54 | O=S(=O)(Nc1cc(-c2ccco2)n[nH]1)c1ccc(Br)cc1C(F)(F)F [CBK067286] | 96.2
55 | O=C(O)c1cc(S(=O)(=O)Nc2cc(-c3ccco3)n[nH]2)c(F)cc1Cl [CBK067292] | 92.6
56 | CCN(C(=O)CC1SC(NCC2CCCCC2)=NC1=O)c1ccccc1 (centres unmarked) [CBK067373] | 89.3
57 | CC(C)(C)OC(=O)N1CCC(Oc2nccnc2Cl)CC1 [CBK067386] | 89.8
58 | O=C1C2N=NN(Cc3ccccc3)C2C(=O)N1C1CCCCC1 (centres unmarked) [CBK067389] | 115
59 | CC(C)CC(CC(C)C)OCC(=O)NCC1(c2ccc3ccccc3c2)CCC1 [CBK067404] | 109
60 | CN1CC[C@]2(c3ccc4c(c3)nnn4C)CC[C@@H](NC(=O)Nc3cccc(C(F)(F)F)c3F)C[C@H]12 [CBK067410] | 99.9
61 | COc1ccc([C@@]23CCC(N)C[C@@H]2N(C)CC3)c(F)c1OC (some centres unmarked) [CBK067416] | 78.3
62 | Cc1cccc(S(=O)(=O)Nc2cc(OCCN3CCOCC3)c3occc3c2)c1 [CBK067420C] | 90.4
63 | Cc1ccc(S(=O)(=O)NCC(=O)Nc2ccc3cc(Br)cnc3n2)cc1 [CBK067429] | 95.6
64 | COc1ccccc1NC(=O)NCCC1SC(NC2CCCCCC2)=NC1=O (centres unmarked) [CBK067473] | 91.8
65 | O=[N+]([O-])c1cnc(NS(=O)(=O)c2cccc(C(F)(F)F)c2)s1 [CBK067533] | 104
66 | O=[N+]([O-])c1cnc(NS(=O)(=O)c2ccccc2Br)s1 [CBK067539] | 96.2
67 | O=[N+]([O-])c1cnc(NS(=O)(=O)c2ccc(Br)cc2C(F)(F)F)s1 [CBK067541] | 99.6
68 | Cn1nc(-c2ccc(S(=O)(=O)Nc3ncc([N+](=O)[O-])s3)s2)cc1C(F)(F)F [CBK067542] | 109
69 | O=[N+]([O-])c1cnc(NS(=O)(=O)c2ccc(-c3ccon3)s2)s1 [CBK067543] | 95.2

Row | SMILES | viability at 28.5 h, 10 µM [%]
70 | Cn1nc(-c2ccc(S(=O)(=O)Nc3cccc(Cl)c3Cl)s2)cc1C(F)(F)F [CBK067548] | 92.2
71 | CCCCc1ccc(-c2cnc(N)c3ncccc23)cc1 [CBK067588] | 75.7
72 | CS(=O)(=O)c1ccc(-c2cnc(N)c3ncccc23)cc1 [CBK067593] | 90.5
73 | Nc1ncc(-c2ccc(OC(F)(F)F)cc2)c2cccnc12 [CBK067594] | 98.7
74 | Nc1cc2cccnc2nc1-c1cccnc1 [CBK067602] | 84.8
75 | Nc1cc2cccnc2nc1-c1cc(F)cc(F)c1 [CBK067604] | 88.3
76 | Nc1cc2cccnc2nc1-c1cccc2cccnc12 [CBK067609] | 99.9
77 | COc1ccc(C(C)C)cc1-c1nc2ncccc2cc1N [CBK067614] | 95.8
78 | Nc1ccc2ccc(-c3ccsc3)nc2n1 [CBK067624] | 89.4
79 | Nc1ccc2ccc(-c3ccc4c(c3)CCO4)nc2n1 [CBK067625] | 90
80 | CN(C)c1ccc(-c2ccnc3nc(N)ccc23)cc1 [CBK067640] | 85.8
81 | CS(=O)(=O)c1ccc(-c2ccnc3nc(N)ccc23)cc1 [CBK067648] | 117
82 | Nc1ccc2c(-c3ccc(OC(F)(F)F)cc3)ccnc2n1 [CBK067649] | 89.1
83 | Cc1ccc(S(=O)(=O)Nc2ccnc(Cl)n2)cc1 [CBK067661] | 90.7
84 | COc1ccc([C@@]23CC[C@@H](N)C[C@@H]2N(C(C)(C)C)CC3)cc1OC [CBK067673] | 114
85 | O=C(NCCC1SC(NC2CCCCCC2)=NC1=O)Nc1ccc(C(F)(F)F)cc1Cl (centres unmarked) [CBK067682] | 89.9
86 | O=C1N=C(NC2CCCCCC2)SC1CCNC(=O)N1CCOCC1 (centres unmarked) [CBK067687] | 110
87 | CSc1nnc(-c2sccc2OCc2ccc(Cl)cc2Cl)n1C [CBK067693] | 111
88 | O=C(NCc1n[nH]c(=S)n1-c1cccc(C(F)(F)F)c1)c1cccs1 [CBK067697] | 91.2
89 | Cn1c(SCC(=O)c2ccc(Cl)cc2)nnc1-c1cnccc1C(F)(F)F [CBK067698] | 110
